In patent US20220202811A1, “TREATMENT FOR RETINOIC ACID RECEPTOR-RELATED ORPHAN RECEPTOR Ɣ (RORƔ)-DEPENDENT CANCERS” (The Regents of the University of California, priority 2019, published 2022):
“Also recorded” adds a separate entry of the source.

How the values were obtained:
[1] = system: pancreatic cancer cell; test: in vitro sphere formation, antagonists of Table 2; format: cell-based, mouse; set-up: key: ✓✓✓✓: dose response observed; growth suppressed by 8-fold or more relative to control; ✓✓✓: dose response observed; growth suppressed between 4-fold and 8-fold relative to control; ✓✓: dose response observed; growth suppressed by less than 4-fold relative to control; ✓: response observed only at highest drug dose tested; —: no detectable response; details: extent of growth suppression relative to control
Description: Pancreatic tumorsphere formation assays were performed and modified from (Rovira et al., 2010). Briefly, low-passage (<6 passages) WT or REM2-KP^f/fC cell lines were infected with lentiviral particles containing shRNAs; positively infected (red) cells were sorted 72 hours after transduction. 100-300 infected cells were suspended in tumorsphere media: 100 μl DMEM F-12 (Gibco, Life Technologies) containing 1× B-27 supplement (Gibco, Life Technologies), 3% FBS, 100 μM B-mercaptoethanol (Gibco, Life Technologies), 1× non-essential amino acids (Gibco, Life Technologies), 1× N2 supplement (Gibco, Life Technologies), 20 ng/ml EGF (Gibco, Life Technologies), 20 ng/ml bFGF2 (Gibco, Life Technologies), and 10 ng/ml ESGRO mLIF (Thermo Fisher). Cells in media were plated in 96-well ultra-low adhesion culture plates (Costar) and incubated at 37° C. for 7 days. KP^f/fC in vitro tumorsphere formation studies were conducted at a minimum of n=3 independent wells per cell line across two independent shRNA of n=3 wells; however, the majority of these experiments were additionally completed in >1 independently-derived cell lines n=3, at n=3 wells per shRNA.

[2] = system: pancreatic cancer cell; test: in vivo tumor growth, antagonists of Table 2; set-up: species or system mouse; key: ✓✓✓✓: dose response observed; growth suppressed by 8-fold or more relative to control; ✓✓✓: dose response observed; growth suppressed between 4-fold and 8-fold relative to control; ✓✓: dose response observed; growth suppressed by less than 4-fold relative to control; ✓: response observed only at highest drug dose tested; —: no detectable response; details: extent of growth suppression relative to control
[3] = system: primary patient-derived PDX1535 organoids; test: PDX1535 organoid assay; format: cell-based, human
Description: PDX1535 organoids were derived from a patient of pancreatic cancer. Primary patient organoids were established by digesting patient-derived xenografts for 1 hour at 37° C. in RPMI containing 2.5% FBS, 5 mg/ml Collagenase II, and 1.25 mg/ml Dispase II, followed by passage through a […] mesh filter. Cells were plated at a density of 1.5×10^5 cells per 50 μl Matrigel. After domes were solidified, growth medium was added as follows: RPMI containing 50% Wnt3a conditioned media, 10% RSpondin1-conditioned media, 2.5% FBS, 50 ng/ml EGF, 5 mg/ml Insulin, 12.5 ng/ml hydrocortisone, and 14 μM Rho Kinase Inhibitor. After establishment, organoids were passaged and maintained. Briefly, organoids were isolated using Cell Recovery Solution (Corning 354253), then dissociated into single cell suspension with TrypLE Express (ThermoFisher 12604) supplemented with 25 μg/ml DNase I (Roche) and 14 μM Rho Kinase Inhibitor (Y-27632, Sigma). Cells were split 1:2 into 20 μl domes plated on pre-warmed 48-well plates. Domes were incubated at 37° C. for 5 min, then covered with human complete organoid feeding media without Wnt3a-conditioned media. […] The organoids were imaged and measured at the end of treatment. […] Moreover, the anti-cancer effect of JTE-151 was determined in an organoid assay using pancreatic cancer cells derived from mice bearing primary patient-derived xenografts.

[4] = system: KP^f/fC derived flank tumors; test: KP^f/fC flank tumors in immunocompetent mice; format: in vivo, mouse; details: gemcitabine alone
[5] = system: primary patient-derived PDX1356 organoids; test: PDX1356 organoid assay; format: cell-based, human; details: 0.05 nM gemcitabine alone
Description: PDX1535 organoids were derived from a patient of pancreatic cancer. Primary patient organoids were established by digesting patient-derived xenografts for 1 hour at 37° C. in RPMI containing 2.5% FBS, 5 mg/ml Collagenase II, and 1.25 mg/ml Dispase II, followed by passage through a […] mesh filter. Cells were plated at a density of 1.5×10^5 cells per 50 μl Matrigel. After domes were solidified, growth medium was added as follows: RPMI containing 50% Wnt3a conditioned media, 10% RSpondin1-conditioned media, 2.5% FBS, 50 ng/ml EGF, 5 mg/ml Insulin, 12.5 ng/ml hydrocortisone, and 14 μM Rho Kinase Inhibitor. After establishment, organoids were passaged and maintained. Briefly, organoids were isolated using Cell Recovery Solution (Corning 354253), then dissociated into single cell suspension with TrypLE Express (ThermoFisher 12604) supplemented with 25 μg/ml DNase I (Roche) and 14 μM Rho Kinase Inhibitor (Y-27632, Sigma). Cells were split 1:2 into 20 μl domes plated on pre-warmed 48-well plates. Domes were incubated at 37° C. for 5 min, then covered with human complete organoid feeding media without Wnt3a-conditioned media.
As shown in FIGS. 65-66, the anti-cancer effect of JTE-151 was also tested using the organoid assay on primary patient-derived PDX1356 pancreatic cancer cells. […] The volume of organoids was expressed as relative to control.

Compound: O=C1/C(=C/c2ccccc2)C(NC2CCCCC2)c2ccccc21 (centres unmarked) [BCl]
- in vitro sphere formation [1]: ✓✓ (dose response observed; growth suppressed by less than 4-fold relative to control)
- in vivo tumor growth [2]: —

Compound: Cc1c(F)cccc1NC(=O)Nc1ccc(Cl)c(S(=O)(=O)[C@H]2CCCNC2)c1O [Danirixin]
- in vitro sphere formation [1]: —

Compound: NCCCCCCCN=C(N)N [GC7]
- in vitro sphere formation [1]: ✓

Compound: Cl[TeH]1(Cl)(Cl)OCCO1 [AS101]
- in vitro sphere formation [1]: ✓✓✓ (dose response observed; growth suppressed between 4-fold and 8-fold relative to control)
- in vivo tumor growth [2]: —

Compound: CC(C)(C)NC(=O)c1cncn1C1CCN(c2ccc(-c3nnc(C(F)(F)F)o3)cn2)CC1 [Wnk463]
- in vitro sphere formation [1]: ✓✓ (dose response observed; growth suppressed by less than 4-fold relative to control)

Compound: CCc1cc(Cl)c(OC)c(C(=O)NC[C@@H]2CCCN2CC)c1O [Eticlopride]
- in vitro sphere formation [1]: —
- in vivo tumor growth [2]: —

Compound: Nc1ccn([C@@H]2O[C@H](CO)[C@@H](O)C2(F)F)c(=O)n1 [gemcitabine]
- organoid growth ([3]; 0.025 nM gemcitabine alone): decreased PDZ1535 organoid growth, although not statistically significant
- organoid volume / growth ([3]; 0.05 nM gemcitabine alone): visibly reduced; also recorded: significant inhibition
- cancer stem cell burden [4]: no impact
- organoid volume [5]: significant reduction; also recorded: visibly decreased; also recorded: visibly reduced

Compound: Oc1c(Br)cc(Br)cc1-c1[nH]c(Br)c(Br)c1Br [Pentabromopseudilin]
- in vitro sphere formation [1]: ✓✓ (dose response observed; growth suppressed by less than 4-fold relative to control)
